Experimental findings from ChEMBL document CHEMBL1201862, “PubChem BioAssay data set” (2004) are described below.

Active and inactive are the calls of the source. For most assays here, no stated cut-off is given here; in the data, actives have a measured AC50 and inactives only a lower limit. Bounds are passed on as bounds.

For experiment [1], the target named is T1, Methionyl-tRNA synthetase, putative (Trypanosoma brucei brucei, UniProt Q38C91).
T1 sequence (Q38C91 whole entry): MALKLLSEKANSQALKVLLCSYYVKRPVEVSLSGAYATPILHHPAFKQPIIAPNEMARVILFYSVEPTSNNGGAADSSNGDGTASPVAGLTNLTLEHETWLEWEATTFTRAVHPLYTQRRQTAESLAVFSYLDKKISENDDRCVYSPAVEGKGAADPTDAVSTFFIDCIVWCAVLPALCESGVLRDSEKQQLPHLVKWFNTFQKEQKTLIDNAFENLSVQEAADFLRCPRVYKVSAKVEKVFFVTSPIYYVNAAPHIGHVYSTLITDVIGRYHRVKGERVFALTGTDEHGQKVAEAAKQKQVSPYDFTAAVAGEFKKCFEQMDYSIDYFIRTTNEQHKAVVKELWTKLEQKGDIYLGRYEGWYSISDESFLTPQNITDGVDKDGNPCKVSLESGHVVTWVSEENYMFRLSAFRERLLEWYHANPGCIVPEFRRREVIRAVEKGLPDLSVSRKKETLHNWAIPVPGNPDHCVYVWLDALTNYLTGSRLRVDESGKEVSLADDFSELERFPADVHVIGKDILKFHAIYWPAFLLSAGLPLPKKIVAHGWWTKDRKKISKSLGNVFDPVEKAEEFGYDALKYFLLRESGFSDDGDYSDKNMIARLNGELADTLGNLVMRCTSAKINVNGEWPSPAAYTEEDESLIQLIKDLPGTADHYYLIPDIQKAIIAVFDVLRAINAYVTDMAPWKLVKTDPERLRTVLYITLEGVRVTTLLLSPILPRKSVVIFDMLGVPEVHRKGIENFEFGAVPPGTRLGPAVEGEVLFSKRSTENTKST
The class given is functional, Trypanosoma brucei brucei strain 927/4 GUTat10.1.

The target in experiment [2] is T1, Methionyl-tRNA synthetase, putative. In kind it is functional, Trypanosoma brucei brucei strain 927/4 GUTat10.1. This is another data set of the same source.
Experiment [3] is described as follows: Late stage counterscreen for inhibitors of Trypanosoma brucei methionyl tRNA synthetase (MetRS): Luminescence-based cell-based high throughput dose response assay to identify compounds that are cytotoxic to Jurkat human T lymphocyte cells. The class given is functional. A general note: Counterscreens check selectivity or assay interference.
A short description of experiment [4]: Counterscreen for inhibitors of Trypanosoma brucei methionyl tRNA synthetase (MetRS): Luminescence-based cell-based high throughput dose response assay to identify compounds that are cytotoxic to Jurkat human T lymphocyte cells. In kind it is functional.
The nature of experiment [5]: PAX8-dependent cell viability loss – plate reader, dry powder, dose response (AID 743049). In kind it is functional, cell-based.
Experiment [6] is described as follows: PAX5 cellular inhibition readout – cell-based, plate reader, dry powder samples, selectivity assay for PAX8 inhibitor project, dose response (AID 743047).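 Further: HEK293 cells carrying a Pax5 driven CD19 promoter luciferase reporter; potency of inhibitors that lower reporter luminescence.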 In kind it is functional.
Experiment [7] can be described thus: COV434 cell viability loss – plate reader, dry powder, SA7, cytotoxicity control for PAX8 inhibitor project, dose response (AID 743145). In kind it is functional, cell-based.
A short description of experiment [8]: OV-90 cell viability loss – plate reader, dry powder, SA8, PAX8 inhibitor project, dose response (AID 743149). The class given is functional, cell-based.
Experiment [9] in a line: inhibitors acting on PAX2 in cells – cell-based, plate reader, dry powder samples, selectivity assay for PAX8 inhibitor project, dose response (AID 743048).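 Further: HEK293 cells carrying a WT1 promoter luciferase reporter driven by expressed Pax2; potency is for inhibition of Pax2 driven reporter signal.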 In kind it is functional.
A short description of experiment [10]: OVCAR-3 cell viability loss – plate reader, dry powder samples, PAX8 inhibitor project, dose response (AID 743044). The class given is functional, cell-based.
Experiment [11] in a line: COV362 cell viability loss – plate reader, dry powder, SA12, cytotoxicity control for PAX8 inhibitor project, dose response (AID 743144). In kind it is functional, cell-based.
A short description of experiment [12]: IGROV1 cell killing – plate reader, dry powder samples, PAX8 inhibitor project, dose response (AID 743043). The class given is functional, cell-based. The conditions noted are these: IGROV-1.
Experiment [13] concerns the target Paired box protein Pax-8 (Homo sapiens, UniProt Q06710). Put plainly: PAX8 transcriptional activity inhibition in RMG-I – RMG-I cells, luciferase, cherry-pick, dose response (AID 687027).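 Further: luciferase reporter driven by Pax8 target thyroperoxidase promoter measured by SteadyGlo luminescence.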 The class given is functional, cell-based.
Experiment [14] deals with NAD-dependent protein deacylase sirtuin-5, mitochondrial (Homo sapiens, UniProt Q9NXA8). Nature of the experiment: sirtuin-5 deacylation blockers, concentration series – biochemical, fluorescence imaging, cherry-pick, set 5, dose response (AID 720591).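 Further: desuccinylation of succinyl peptide AMC substrate read as fluorescence after trypsin release; potency of inhibitors that lower fluorescence and may act on trypsin instead.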
Experiment [15] can be described thus: inhibition of ADAM10 peptide cleavage – biochemical, FRET peptide substrate, recombinant human ADAM10, selectivity assay for ADAM17 exosite inhibitor project, dose response (AID 743259).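 Further: ADAM10 enzyme cleaving a FRET peptide substrate.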
Experiment [16] concerns the target Disintegrin and metalloproteinase domain-containing protein 17 (Homo sapiens, UniProt P78536). Put plainly: exosite inhibitors of ADAM17, dose response, biochemical (AID 743260).
Experiment [17] deals with HEK293. Put plainly: viability loss in HEK293T cells – cell-based, ATP luminescence, cherry-pick samples, cytotoxicity control, dose response (AID 687005).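 Further: cells exposed to compound for 48 hours.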 The conditions noted are these: Homo sapiens. The class given is functional.
A short description of experiment [18]: HEK293 Cytotoxicity Assay Measured in Cell-Based System Using Plate Reader - 7071-01_Inhibitor_Dose_CherryPick_Activity_Set2. In kind it is functional.
Experiment [19] can be described thus: cells. Particulars: HEK293.
Experiment [20] can be described thus: cells. The conditions noted are these: A549.
A short description of experiment [21]: viability loss in HepG2 liver cells – cell-based, ATP luminescence, cherry-pick, set 6, cytotoxicity control, dose response (AID 1053125). In kind it is functional.
Experiment [22] can be described thus: reduction of Shn3 3'UTR-driven luciferase in osteoblasts – cell-based, Clone20 osteoblasts, firefly luciferase, cherry-picked, dose response (AID 624132).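 Further: firefly luciferase luminescence from reporter carrying the Shn3 3'UTR in osteoblasts.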 In kind it is functional.
Experiment [23] is described as follows: non-specific 3'UTR reporter inhibition in Clone20-Shn3RL – cell-based, Renilla luciferase, cherry-picked, counter-screen for Shn3 inhibitor project, dose response (AID 624133). In kind it is functional.
Experiment [24] can be described thus: Shn3 3'UTR reporter signal decrease – cell-based, Clone20 osteoblasts, firefly luciferase, cherry-pick, set 2, Schnurri-3 inhibitor project, dose response (AID 720490).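 Further: actives lower the luminescence signal as inhibitors.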 The class given is functional.
Experiment [25] can be described thus: EF1alpha-driven Renilla reporter with control 3'UTR suppression – Clone20-Shn3RL cells, dual-Glo, cherry-pick, set 2, counter-screen for Shn3 3'UTR targeting project, dose response (AID 720724). The class given is functional, cell-based. The conditions noted are these: Dual-Go Shn3RL.
Experiment [26] in a line: cells.
In experiment [27] the target is T2, Oxysterols receptor LXR-beta (Homo sapiens, UniProt P55055).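 Further: Cell-based luminescence dose-response assay of agonist activity at LXR, run as a confirmatory counterscreen to a daf-12 agonist screen; HEK293 cells with Gal4-LXR fusion and GAL4-driven luciferase reporter; agonist potency from rising luciferase signal of a Gal4-LXR reporter.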
T2 sequence (P55055 whole entry): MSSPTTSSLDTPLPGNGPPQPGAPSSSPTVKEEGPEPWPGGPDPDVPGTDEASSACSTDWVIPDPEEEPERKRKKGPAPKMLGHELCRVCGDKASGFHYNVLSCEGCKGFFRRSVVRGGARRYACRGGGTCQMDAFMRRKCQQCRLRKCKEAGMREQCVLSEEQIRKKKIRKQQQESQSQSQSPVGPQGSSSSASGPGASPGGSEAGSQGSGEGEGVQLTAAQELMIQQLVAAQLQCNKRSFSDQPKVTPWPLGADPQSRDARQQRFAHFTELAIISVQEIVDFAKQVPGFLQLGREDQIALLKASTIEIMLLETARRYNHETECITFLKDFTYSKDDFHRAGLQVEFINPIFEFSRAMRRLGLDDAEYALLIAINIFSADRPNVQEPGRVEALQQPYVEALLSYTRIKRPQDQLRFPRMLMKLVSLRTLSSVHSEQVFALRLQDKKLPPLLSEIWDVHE
The class given is functional, cell-based.

As a reminder, the IC50 is the concentration needed to halve the response being measured. In general, AC50 refers to the midpoint of the concentration-response curve, whichever way the signal moves. By EC50 is commonly meant the concentration that produces a half-maximal response.

Sequence of NAD-dependent protein deacylase sirtuin-5, mitochondrial (Q9NXA8 whole entry): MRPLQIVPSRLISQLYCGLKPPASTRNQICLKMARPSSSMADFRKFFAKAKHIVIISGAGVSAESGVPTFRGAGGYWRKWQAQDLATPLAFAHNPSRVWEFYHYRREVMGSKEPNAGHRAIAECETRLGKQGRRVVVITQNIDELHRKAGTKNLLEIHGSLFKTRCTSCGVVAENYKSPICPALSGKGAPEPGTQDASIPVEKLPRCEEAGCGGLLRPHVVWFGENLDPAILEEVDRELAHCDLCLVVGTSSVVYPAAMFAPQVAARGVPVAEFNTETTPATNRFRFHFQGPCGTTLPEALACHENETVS
Sequence of Disintegrin and metalloproteinase domain-containing protein 17 (P78536 whole entry, the tested form may be a part): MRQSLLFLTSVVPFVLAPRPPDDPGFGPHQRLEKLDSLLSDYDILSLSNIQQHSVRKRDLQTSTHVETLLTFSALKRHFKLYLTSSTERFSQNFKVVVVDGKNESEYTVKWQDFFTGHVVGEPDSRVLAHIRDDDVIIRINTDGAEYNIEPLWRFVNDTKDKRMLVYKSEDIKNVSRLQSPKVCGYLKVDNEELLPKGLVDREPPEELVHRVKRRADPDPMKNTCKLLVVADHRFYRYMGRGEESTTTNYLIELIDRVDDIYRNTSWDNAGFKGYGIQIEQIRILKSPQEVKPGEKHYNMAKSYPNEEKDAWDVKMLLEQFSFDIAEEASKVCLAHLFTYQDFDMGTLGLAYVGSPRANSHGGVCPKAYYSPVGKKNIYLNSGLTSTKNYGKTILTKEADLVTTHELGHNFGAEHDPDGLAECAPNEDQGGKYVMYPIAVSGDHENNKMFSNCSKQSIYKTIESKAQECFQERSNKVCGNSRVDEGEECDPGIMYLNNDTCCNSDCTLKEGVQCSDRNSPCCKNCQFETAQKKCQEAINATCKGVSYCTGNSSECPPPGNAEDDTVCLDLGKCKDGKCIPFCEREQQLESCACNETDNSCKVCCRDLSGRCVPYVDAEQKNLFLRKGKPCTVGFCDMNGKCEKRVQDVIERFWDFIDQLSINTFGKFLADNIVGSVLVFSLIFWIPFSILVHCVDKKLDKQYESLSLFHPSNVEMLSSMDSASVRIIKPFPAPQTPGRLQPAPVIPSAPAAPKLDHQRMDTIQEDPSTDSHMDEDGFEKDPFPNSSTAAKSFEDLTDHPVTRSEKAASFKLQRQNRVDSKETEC
Sequence of Paired box protein Pax-8 (Q06710 whole entry): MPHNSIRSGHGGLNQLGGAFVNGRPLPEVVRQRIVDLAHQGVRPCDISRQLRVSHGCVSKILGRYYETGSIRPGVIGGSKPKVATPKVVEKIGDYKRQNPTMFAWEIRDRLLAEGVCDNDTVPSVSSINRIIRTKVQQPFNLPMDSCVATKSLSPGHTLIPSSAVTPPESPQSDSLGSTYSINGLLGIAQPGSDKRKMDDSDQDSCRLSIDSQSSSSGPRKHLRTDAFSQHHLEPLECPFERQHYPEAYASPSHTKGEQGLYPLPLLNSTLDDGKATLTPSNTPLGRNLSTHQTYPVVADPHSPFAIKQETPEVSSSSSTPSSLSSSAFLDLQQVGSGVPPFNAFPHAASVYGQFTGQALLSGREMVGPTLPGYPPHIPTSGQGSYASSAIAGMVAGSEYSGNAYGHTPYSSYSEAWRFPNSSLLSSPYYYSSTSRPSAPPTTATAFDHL

`CC(C)(C)[C@H]1C=C(C(=O)NCc2nc3ccccc3[nH]2)O[C@@H](OCc2ccc(CO)cc2)C1`: the 50% inhibitory concentration (IC50) is 3.78 µM (active) in experiment [1], 1.99 µM (active) in [2], 77 µM (inactive) in experiment [3] and 44.2 µM (inactive) in [4].
As to `Cc1nc2sc(C(c3ccco3)N3CCN(C(c4ccccc4)c4ccccc4)CC3)c(O)n2n1` (configuration not stated), the AC50 in experiment [5] was 8.59 µM (active); in experiment [6], > 100 µM (inactive); in [7], 45.6 µM (active); in experiment [8] it was 47 µM (active); in [9], 62.5 µM (active); in experiment [10], 40.9 µM (active). In addition, the AC50 was 69 µM (active) in experiment [11], 17 µM (active) in experiment [12] and 5.25 µM (active) in experiment [13].
Regarding `O=C(O)CCNC(=O)c1ccc(NC(=O)Cc2ccc(Cl)cc2)cc1`, the AC50 in experiment [14] is 18.8 µM (active).
With `Cc1cc(C)n(CCc2nc(-c3ccc(C(C)(C)C)cc3)cs2)n1`, the IC50 in experiment [15] was 36.5 µM (inactive); in [16], > 69.5 µM (inactive).
With `Cc1cccc(C)c1NC(=O)C1CCCN1C(=O)OC(C)(C)C` (configuration not stated), the AC50 in experiment [17] and in experiment [18] was 50.8 µM (active) each time.
Take `O=C(NCc1cc(C(F)(F)F)ccc1Cl)c1cccc2c1C(=O)c1ccc(Cl)cc1S2(=O)=O`: the values for the AC50 in experiment [19], in experiment [20] and in [21] were > 52 µM (inactive), 37.6 µM (active) and > 52 µM (inactive), respectively.
Turning to `CCC(C)c1ccc(S(=O)(=O)N2CCN(C(=O)c3ccc(Cl)c(S(=O)(=O)N4CCOCC4)c3)CC2)cc1` (configuration not stated), the AC50 is 5.32 µM (active) in experiment [22], > 70 µM (inactive) in [23], 6.16 µM (active) in experiment [24] and 61.3 µM (active) in experiment [25].
On to `COc1cccc(-c2nc3n(n2)CCc2ccccc2-3)c1`, for which the EC50 in experiment [26] and in [27] was > 67.5 µM (inactive) in each case.
